Data: US10221163B2 (priority 2015, dated 2019)
pIC50: −log10 of the molar value. Like-named read-outs stand apart in the source and are kept apart here.

Tests used:
VIM-1 = VIM-1 (Pseudomonas aeruginosa (strain ATCC 15692 / DSM 22644 / CIP 104116 / JCM 14847 / LMG 12228 / 1C / PRS 101 / PAO1), UniProt A0A0F7KYQ8); assay: biochemical; conditions: CCF2-FA substrate, 30 pM enzyme, 2 hours at 25° C.
Procedure, shortened: (§1)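 Fluorescence assay, CCF2-FA substrate (cephalosporin core linking 7-hydroxycoumarin to fluorescein); inhibitor + MBL + substrate, 2 h, 25° C. IC50 by 4-parameter fit, semi-log plot.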

[1] = test system: Klebsiella pneumoniae expressing VIM-1 (IHMA599644); format: cell-based; conditions: with imipenem 1 μg/ml; 95% inhibition of bacterial growth
Procedure, shortened: (§2)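 Clinical strains grown overnight on blood agar at 35°C, colonies suspended in saline, diluted 1:100 into 1.1×CAMHB. Test compound titrated with imipenem at 1 μg/ml; incubated 22–24 h at 35°C, growth read by absorbance.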

[2] = test system: Escherichia coli expressing NDM-1 (CLB30005, CLB30016); format: cell-based; conditions: with imipenem 1 μg/ml; 95% inhibition of bacterial growth
Procedure, shortened: as §2

[3] = test system: Serratia marcescens expressing IMP-1 (CL5741); format: cell-based; conditions: with imipenem 1 μg/ml; 95% inhibition of bacterial growth
Procedure, shortened: as §2

[4] = test system: Pseudomonas aeruginosa efflux+ (MB9798), IMP-1; format: cell-based; conditions: concentration restoring susceptibility to imipenem at 2 μg/mL in the presence of a class A, C, D serine β-lactamase inhibitor closely related to relebactam
Procedure, shortened: (§3)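 PAO1 pair, broth microdilution; fixed β-lactam (imipenem/ceftazidime) at ~CLSI breakpoint + fixed class A/C BLI for AmpC; serial MBLi titration; endpoint = MBLi conc. restoring susceptibility; MB9798:MB9799 ratio = efflux liability.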

[5] = test system: Pseudomonas aeruginosa MB9798 vs MB9799; conditions: ratio MITC95 PA_9798/MITC95 PA_9799
Procedure, shortened: as §3

NDM-1 = NDM-1 (Klebsiella pneumoniae, UniProt C7C422); assay: biochemical; format: biochemical; conditions: CCF2-FA substrate, 1 pM enzyme, 2 hours at 25° C.
Chain of NDM-1 (C7C422 whole entry, looked up, species assumed): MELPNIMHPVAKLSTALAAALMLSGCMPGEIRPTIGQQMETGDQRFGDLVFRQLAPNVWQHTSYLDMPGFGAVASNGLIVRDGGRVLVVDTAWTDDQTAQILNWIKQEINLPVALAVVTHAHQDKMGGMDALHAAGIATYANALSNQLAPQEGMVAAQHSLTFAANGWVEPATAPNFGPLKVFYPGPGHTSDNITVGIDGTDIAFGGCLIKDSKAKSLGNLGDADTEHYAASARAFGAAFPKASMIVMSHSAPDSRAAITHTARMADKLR
Procedure, shortened: as §1

IMP-1 = IMP-1 (Serratia marcescens, UniProt P52699); assay: biochemical; format: biochemical; conditions: fluorescence assay, CCF2-FA substrate, 2 pM enzyme, 2 hours at 25° C.; read-out: IMP-1 IC50
Chain of IMP-1 (P52699 whole entry, looked up, species assumed): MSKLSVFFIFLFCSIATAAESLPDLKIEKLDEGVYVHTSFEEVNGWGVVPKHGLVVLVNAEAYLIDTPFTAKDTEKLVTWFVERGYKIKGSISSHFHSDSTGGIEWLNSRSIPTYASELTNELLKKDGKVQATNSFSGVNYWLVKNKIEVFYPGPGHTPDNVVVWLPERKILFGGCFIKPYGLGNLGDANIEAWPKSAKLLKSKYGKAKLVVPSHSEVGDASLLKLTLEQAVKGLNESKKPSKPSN
Procedure, shortened: as §1

[6] = test system: Pseudomonas aeruginosa efflux− (MB9799), IMP-1; format: cell-based; conditions: concentration restoring susceptibility to imipenem at 2 μg/mL in the presence of a class A, C, D serine β-lactamase inhibitor closely related to relebactam
Procedure, shortened: as §3

[7] = fluorescence assay, read-out: VIM-1 IC50
[8] = fluorescence assay, read-out: NDM-1 IC50

Structure (SMILES) | pIC50 (VIM-1; [7]) | Klebsiella pneumoniae expressing VIM-1 (IHMA599644) MITC95 [1] [µM] | Escherichia coli expressing NDM-1 (CLB30016) MITC95 [2] [µM] | Serratia marcescens expressing IMP-1 (CL5741) MITC95 [3] [µM] | P. aeruginosa expressing IMP-1, efflux + (MB9798) MITC95 [4] [µM] | Efflux ratio [5] | pIC50 (NDM-1; [8]) | pIC50 (IMP-1) | P. aeruginosa expressing IMP-1, efflux − (MB9799) MITC95 [6] [µM] | pIC50 (VIM-1; VIM-1 IC50, fluorescence assay) | pIC50 (NDM-1; NDM-1 IC50, fluorescence assay)
NCC1CCCCN1S(=O)(=O)c1ccc(-c2cccc3sc(N)nc23)c(-c2nnn[nH]2)c1S(N)(=O)=O.O=C(O)C(F)(F)F (stereo not drawn) [Example 110, (1-((4-(2-aminobenzo[d]thiazol-4-yl)-2-sulfamoyl-3-(1H-tetrazol-5-yl)phenyl)sulfonyl)piperidin-2-yl)methanaminium 2,2,2-trifluoroacetate] | 9.51 | 3.125 | 1.563 | 3.125 | 1.563 | 1.00 | 10.09 | 9.46 | 1.563 |  | 
Nc1nc2c(-c3ccc(S(=O)(=O)NC4C5CNCC54)c(S(N)(=O)=O)c3-c3nnn[nH]3)cccc2s1.O=C(O)C(F)(F)F (stereo not drawn) [Example 111, 6-(4-(2-aminobenzo[d]thiazol-4-yl)-2-sulfamoyl-3-(1H-tetrazol-5-yl)phenylsulfonamido)-3-azabicyclo[3.1.0]hexan-3-ium 2,2,2-trifluoroacetate] | 9.53 | 3.125 | 1.563 | 1.563 | 0.7813 | 0.50 | 10.13 | 9.37 | 1.563 |  | 
Nc1nc2c(-c3ccc(S(=O)(=O)NCC4CNCCO4)c(S(N)(=O)=O)c3-c3nnn[nH]3)cccc2s1.O=C(O)C(F)(F)F (stereo not drawn) [Example 112, 2-((4-(2-aminobenzo[d]thiazol-4-yl)-2-sulfamoyl-3-(1H-tetrazol-5-yl)phenylsulfonamido)methyl)morpholin-4-ium 2,2,2-trifluoroacetate] |  | 3.125 | 1.563 | 1.563 | 1.563 | 1.00 | 10.34 | 9.50 | 1.563 | 9.66 | 
Nc1nc2c(-c3ccc(S(=O)(=O)NCC4(N)CCOCC4)c(S(N)(=O)=O)c3-c3nnn[nH]3)cccc2s1.O=CO [Example 115, 4-((4-(2-aminobenzo[d]thiazol-4-yl)-2-sulfamoyl-3-(1H-tetrazol-5-yl)phenylsulfonamido)methyl)tetrahydro-2H-pyran-4-aminium formate] | 9.41 | 6.25 | 3.125 | 3.125 | 3.125 | 1.00 | 10.22 | 9.49 | 3.125 |  | 
CC(CN)NS(=O)(=O)c1ccc(-c2cccc3sc(N)nc23)c(-c2nnn[nH]2)c1S(N)(=O)=O.O=CO (stereo not drawn) [Example 116, 2-(4-(2-aminobenzo[d]thiazol-4-yl)-2-sulfamoyl-3-(1H-tetrazol-5-yl)phenylsulfonamido)propan-1-aminium formate] |  | 3.125 | 1.563 | 1.563 | 0.7813 | 0.50 | 10.62 | 9.57 | 1.563 | 9.58 | 
Nc1nc2c(-c3ccc(S(=O)(=O)NCC4CCNC4)c(S(N)(=O)=O)c3-c3nnn[nH]3)cccc2s1.O=CO (stereo not drawn) [Example 120, 3-((4-(2-aminobenzo[d]thiazol-4-yl)-2-sulfamoyl-3-(1H-tetrazol-5-yl)phenylsulfonamido)methyl)pyrrolidin-1-ium formate] |  | 3.125 | 1.563 | 1.563 | 0.7813 | 0.50 | 10.31 | 9.59 | 1.563 | 9.70 | 
CN(C[C@@H]1CCCN1)S(=O)(=O)c1ccc(-c2cccc3sc(N)nc23)c(-c2nnn[nH]2)c1S(N)(=O)=O.O=CO [Example 121, (S)-2-((4-(2-aminobenzo[d]thiazol-4-yl)-N-methyl-2-sulfamoyl-3-(1H-tetrazol-5-yl)phenylsulfonamido)methyl)pyrrolidin-1-ium formate] | 8.15 | 12.5 | 6.25 | 3.125 | 12.5 | 4.00 | 8.85 | 8.55 | 3.125 |  | 
Nc1nc2c(-c3ccc(S(=O)(=O)NCCC(N)CF)c(S(N)(=O)=O)c3-c3nnn[nH]3)cccc2s1.O=CO (stereo not drawn) [Example 123, 4-(4-(2-aminobenzo[d]thiazol-4-yl)-2-sulfamoyl-3-(1H-tetrazol-5-yl)phenylsulfonamido)-1-fluorobutan-2-aminium formate] |  | 3.125 | 1.563 | 1.563 | 1.563 | 1.00 | 10.44 | 9.66 | 1.563 | 9.72 | 
Nc1nc2c(-c3ccc(S(=O)(=O)NCCC(N)C(F)F)c(S(N)(=O)=O)c3-c3nnn[nH]3)cccc2s1.O=CO (stereo not drawn) [Example 124, 4-(4-(2-aminobenzo[d]thiazol-4-yl)-2-sulfamoyl-3-(1H-tetrazol-5-yl)phenylsulfonamido)-1,1-difluorobutan-2-aminium formate] |  | 12.5 | 12.5 | 3.125 | 12.5 | 4.00 |  | 9.65 | 3.125 | 9.60 | 11.19
C[C@H](N)CNS(=O)(=O)c1ccc(-c2cccc3sc(N)nc23)c(-c2nnn[nH]2)c1S(N)(=O)=O.O=CO [Example 127, (S)-4-(2-aminobenzo[d]thiazol-4-yl)-N1-(2-aminopropyl)-3-(1H-tetrazol-5-yl)benzene-1,2-disulfonamide, formate salt] |  | 3.125 | 3.125 | 1.563 | 1.563 | 1.00 | 10.38 | 9.49 | 1.563 | 9.63 | 
